PMC6429214, “Design, Synthesis and Biological Evaluation of Isoxazole-Based CK1 Inhibitors Modified with Chiral Pyrrolidine Scaffolds” (Molecules, 2019)

What was measured:
[1] = target: T1, SIK1 (Homo sapiens, UniProt P57059); test: 33PanQinase panel; assay type: biochemical; details: SIK1, 1 µM; read-out: Residual Activity (%)
T1 construct: purchased ProQinase
Experimental: (§1) Figure 5 Dendrogram representation of the selectivity profile of 29d at a concentration of 1 μM in a panel of 320 wild-type kinases (ProQinase, Freiburg, Germany). The residual kinase activity was determined compared to DMSO control. Images were generated using TREEspot Software Tool, DISCOVERX CORPORATION 2010. […]
(§2) Table S2. Selectivity profile of compound 29d. The inhibitor has been screened at a concentration of 1 µM over a panel of 320 wild-type protein kinases by ProQinase GmbH (Freiburg, Germany) using an activity-based radiometric 33PanQinase® assay. Results are presented as percentage of residual kinase activity relative to […]
(§3) control. The final DMSO concentration was 1 % in each reaction-mix. Classification of protein kinase families refers to Manning et al. (Manning, G.; Whyte, D. B.; Martinez, R.; Hunter, T.; Sudarsanam, S. The Protein Kinase Complement of the Human Genome. Science 2002, 298, 1912–1934): AGC = containing PKA, PKG, PKC families; […] = containing Cdk, MAPK, GSK3, CLK families; STE = homologs of yeast sterile 7, sterile 11, sterile 20 kinases; TK = tyrosine kinase; TKL = tyrosine kinase-like.
(§4) Kinase name Kinase family Residual Activity (%)

[2] = target: T2, RET (Homo sapiens, UniProt P07949); test: 33PanQinase panel; assay type: biochemical; details: read-out: Residual Activity (%)
T2 construct: purchased ProQinase
Experimental: as §1, §2, §3, §4

[3] = target: T3, PRK2 (Homo sapiens, UniProt Q16513); test: 33PanQinase panel; assay type: biochemical; details: PRK2, 1 µM; read-out: Residual Activity (%)
T3 construct: purchased ProQinase
T3 sequence (Q16513 whole entry): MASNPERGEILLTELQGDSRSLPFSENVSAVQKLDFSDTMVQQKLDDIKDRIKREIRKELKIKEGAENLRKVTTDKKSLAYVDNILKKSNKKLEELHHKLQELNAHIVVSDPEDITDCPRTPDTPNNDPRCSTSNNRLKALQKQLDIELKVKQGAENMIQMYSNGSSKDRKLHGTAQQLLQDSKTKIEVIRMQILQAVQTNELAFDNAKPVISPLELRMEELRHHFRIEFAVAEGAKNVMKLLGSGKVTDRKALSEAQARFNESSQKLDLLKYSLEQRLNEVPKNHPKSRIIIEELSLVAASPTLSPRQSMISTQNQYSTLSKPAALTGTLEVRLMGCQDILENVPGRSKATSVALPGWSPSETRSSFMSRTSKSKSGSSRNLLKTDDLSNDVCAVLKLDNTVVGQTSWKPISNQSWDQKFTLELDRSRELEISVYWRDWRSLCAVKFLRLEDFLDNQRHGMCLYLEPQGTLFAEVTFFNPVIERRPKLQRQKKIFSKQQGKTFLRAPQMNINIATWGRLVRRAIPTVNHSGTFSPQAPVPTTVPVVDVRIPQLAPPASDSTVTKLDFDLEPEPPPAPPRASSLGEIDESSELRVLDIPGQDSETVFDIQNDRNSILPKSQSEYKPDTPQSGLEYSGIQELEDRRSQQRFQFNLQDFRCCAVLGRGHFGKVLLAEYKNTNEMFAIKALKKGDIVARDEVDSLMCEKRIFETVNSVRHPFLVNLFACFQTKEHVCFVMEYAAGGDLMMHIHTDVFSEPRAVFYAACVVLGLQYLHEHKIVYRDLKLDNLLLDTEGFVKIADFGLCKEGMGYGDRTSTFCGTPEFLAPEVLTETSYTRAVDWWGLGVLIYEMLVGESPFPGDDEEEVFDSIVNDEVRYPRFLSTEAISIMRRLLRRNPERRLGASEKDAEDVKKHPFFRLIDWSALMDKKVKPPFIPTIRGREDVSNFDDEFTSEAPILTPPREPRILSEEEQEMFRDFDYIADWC
Experimental: as §1, §2, §3, §4

[4] = target: T4, PKC-gamma (Homo sapiens, UniProt P05129); test: 33PanQinase panel; assay type: biochemical; details: read-out: Residual Activity (%)
T4 construct: purchased ProQinase
Experimental: as §1, §2, §3, §4

[5] = target: T5, JAK1 aa583-1154 wt (Homo sapiens, UniProt P23458); test: 33PanQinase panel; assay type: biochemical; details: read-out: Residual Activity (%)
T5 construct: purchased ProQinase
T5 sequence (P23458 583-1154): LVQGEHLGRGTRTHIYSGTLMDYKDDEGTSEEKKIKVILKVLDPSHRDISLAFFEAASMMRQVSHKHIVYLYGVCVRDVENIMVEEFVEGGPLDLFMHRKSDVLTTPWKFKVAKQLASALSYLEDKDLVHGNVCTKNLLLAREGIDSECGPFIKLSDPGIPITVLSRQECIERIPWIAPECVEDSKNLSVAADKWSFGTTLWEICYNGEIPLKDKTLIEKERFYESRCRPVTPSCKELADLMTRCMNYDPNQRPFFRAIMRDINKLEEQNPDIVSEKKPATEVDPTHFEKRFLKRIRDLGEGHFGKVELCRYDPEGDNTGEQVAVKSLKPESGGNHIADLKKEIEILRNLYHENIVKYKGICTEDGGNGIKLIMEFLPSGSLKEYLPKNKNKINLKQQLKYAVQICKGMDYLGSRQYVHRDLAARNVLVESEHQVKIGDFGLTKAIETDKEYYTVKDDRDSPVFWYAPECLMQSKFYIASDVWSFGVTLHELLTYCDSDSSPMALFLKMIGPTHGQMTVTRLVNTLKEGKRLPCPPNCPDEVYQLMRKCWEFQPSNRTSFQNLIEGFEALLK
Experimental: as §1, §2, §3, §4

[6] = target: T6, EPHA3 (Homo sapiens, UniProt P29320); test: 33PanQinase panel; assay type: biochemical; details: EPHA3, 1 µM; read-out: Residual Activity (%)
T6 construct: purchased ProQinase
T6 sequence (P29320 21-983): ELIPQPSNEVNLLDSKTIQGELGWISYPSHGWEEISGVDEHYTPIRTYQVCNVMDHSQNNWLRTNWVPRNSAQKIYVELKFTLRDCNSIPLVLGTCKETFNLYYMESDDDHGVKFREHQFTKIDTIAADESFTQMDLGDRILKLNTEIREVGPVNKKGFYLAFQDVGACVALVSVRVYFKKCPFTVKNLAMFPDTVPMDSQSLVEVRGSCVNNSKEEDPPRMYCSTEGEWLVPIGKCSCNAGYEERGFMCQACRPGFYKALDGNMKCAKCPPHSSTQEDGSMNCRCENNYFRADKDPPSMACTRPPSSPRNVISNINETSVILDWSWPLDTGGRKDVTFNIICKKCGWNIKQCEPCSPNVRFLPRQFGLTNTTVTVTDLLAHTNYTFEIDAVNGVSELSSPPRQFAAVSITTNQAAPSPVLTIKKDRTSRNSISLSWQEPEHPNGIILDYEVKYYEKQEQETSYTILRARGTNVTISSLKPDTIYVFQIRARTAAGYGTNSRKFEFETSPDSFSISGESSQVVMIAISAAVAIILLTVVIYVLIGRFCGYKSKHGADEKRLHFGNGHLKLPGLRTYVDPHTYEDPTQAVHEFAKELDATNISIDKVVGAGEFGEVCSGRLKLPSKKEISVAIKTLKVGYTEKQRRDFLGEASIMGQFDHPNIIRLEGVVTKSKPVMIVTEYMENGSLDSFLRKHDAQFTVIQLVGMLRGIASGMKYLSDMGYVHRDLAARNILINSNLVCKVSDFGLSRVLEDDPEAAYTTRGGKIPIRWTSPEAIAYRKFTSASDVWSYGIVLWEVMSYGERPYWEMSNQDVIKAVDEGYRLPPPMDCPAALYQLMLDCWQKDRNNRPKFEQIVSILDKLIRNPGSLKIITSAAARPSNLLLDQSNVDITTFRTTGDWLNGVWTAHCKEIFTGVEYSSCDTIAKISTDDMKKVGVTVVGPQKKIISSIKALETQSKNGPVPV
Experimental: as §1, §2, §3, §4

[7] = target: T7, DCAMKL2 (Homo sapiens, UniProt Q8N568); test: 33PanQinase panel; assay type: biochemical; details: DCAMKL2, 1 µM; read-out: Residual Activity (%)
T7 construct: purchased ProQinase
T7 sequence (Q8N568 whole entry): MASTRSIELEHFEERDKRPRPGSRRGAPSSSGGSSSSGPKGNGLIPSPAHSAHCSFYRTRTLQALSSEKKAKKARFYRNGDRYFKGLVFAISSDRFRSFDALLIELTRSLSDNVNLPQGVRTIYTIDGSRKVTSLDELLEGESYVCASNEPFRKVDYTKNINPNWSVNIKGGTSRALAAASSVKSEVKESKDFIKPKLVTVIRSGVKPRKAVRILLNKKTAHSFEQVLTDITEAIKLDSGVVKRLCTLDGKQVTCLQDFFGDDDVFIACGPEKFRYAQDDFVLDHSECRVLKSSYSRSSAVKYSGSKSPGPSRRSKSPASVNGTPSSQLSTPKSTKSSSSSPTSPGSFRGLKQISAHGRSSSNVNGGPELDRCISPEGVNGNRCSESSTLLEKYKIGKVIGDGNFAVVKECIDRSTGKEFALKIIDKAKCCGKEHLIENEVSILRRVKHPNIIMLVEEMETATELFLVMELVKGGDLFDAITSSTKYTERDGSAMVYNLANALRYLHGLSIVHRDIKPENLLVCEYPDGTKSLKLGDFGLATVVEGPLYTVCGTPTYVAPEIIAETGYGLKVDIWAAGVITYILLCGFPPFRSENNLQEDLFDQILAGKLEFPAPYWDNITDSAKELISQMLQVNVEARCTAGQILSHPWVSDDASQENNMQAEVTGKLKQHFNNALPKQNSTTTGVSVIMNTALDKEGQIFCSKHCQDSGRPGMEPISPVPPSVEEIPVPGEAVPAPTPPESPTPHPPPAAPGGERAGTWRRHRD
Experimental: as §1, §2, §3, §4

[8] = target: T8, CSF1-R (Homo sapiens, UniProt P07333); test: 33PanQinase panel; assay type: biochemical; details: read-out: Residual Activity (%)
T8 construct: purchased ProQinase
Experimental: as §1, §2, §3, §4

[9] = target: T9, ACV-R2B (Homo sapiens, UniProt Q13705); test: 33PanQinase panel; assay type: biochemical; details: read-out: Residual Activity (%)
T9 construct: purchased ProQinase
Experimental: as §1, §2, §3, §4

[10] = target: T10, Aurora-C (Homo sapiens, UniProt Q9UQB9); test: 33PanQinase panel; assay type: biochemical; details: read-out: Residual Activity (%)
T10 construct: purchased ProQinase
T10 sequence (Q9UQB9 whole entry): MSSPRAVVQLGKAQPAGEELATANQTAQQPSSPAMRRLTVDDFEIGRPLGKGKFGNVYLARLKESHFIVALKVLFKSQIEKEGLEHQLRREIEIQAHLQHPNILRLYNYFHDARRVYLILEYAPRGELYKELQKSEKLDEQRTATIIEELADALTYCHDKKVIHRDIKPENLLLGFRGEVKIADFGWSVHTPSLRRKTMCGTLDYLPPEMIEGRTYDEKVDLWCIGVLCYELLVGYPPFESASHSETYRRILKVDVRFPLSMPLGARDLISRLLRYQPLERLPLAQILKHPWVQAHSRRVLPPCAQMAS
Experimental: as §1, §2, §3, §4

[11] = target: T11, TEC (Homo sapiens, UniProt P42680); test: 33PanQinase panel; assay type: biochemical; details: read-out: Residual Activity (%)
T11 construct: purchased ProQinase
T11 sequence (P42680 whole entry): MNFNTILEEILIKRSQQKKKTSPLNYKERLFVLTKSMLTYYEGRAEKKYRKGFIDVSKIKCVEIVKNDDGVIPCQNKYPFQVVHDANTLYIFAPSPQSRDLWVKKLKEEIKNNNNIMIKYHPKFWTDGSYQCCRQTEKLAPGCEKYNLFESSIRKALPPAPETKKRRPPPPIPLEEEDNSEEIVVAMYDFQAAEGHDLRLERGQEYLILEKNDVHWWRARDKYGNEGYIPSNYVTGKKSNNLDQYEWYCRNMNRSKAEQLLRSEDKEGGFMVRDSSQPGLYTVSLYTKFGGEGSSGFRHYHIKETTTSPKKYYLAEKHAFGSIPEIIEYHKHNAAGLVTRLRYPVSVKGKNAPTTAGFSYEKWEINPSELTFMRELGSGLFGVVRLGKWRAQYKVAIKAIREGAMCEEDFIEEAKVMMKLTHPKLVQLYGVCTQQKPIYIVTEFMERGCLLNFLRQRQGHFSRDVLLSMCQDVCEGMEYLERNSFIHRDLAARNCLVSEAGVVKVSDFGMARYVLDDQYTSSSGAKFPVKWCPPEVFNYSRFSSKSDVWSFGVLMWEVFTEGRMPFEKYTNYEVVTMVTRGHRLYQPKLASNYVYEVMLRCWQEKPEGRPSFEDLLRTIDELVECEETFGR
Experimental: as §1, §2, §3, §4

[12] = target: T12, CDK6/CycD1 (Homo sapiens, UniProt Q00534); test: 33PanQinase panel; assay type: biochemical; details: CDK6/CycD1, 1 µM; read-out: Residual Activity (%)
T12 construct: purchased ProQinase
Experimental: as §1, §2, §3, §4

[13] = target: T13, EGF-R (Homo sapiens, UniProt P00533); test: 33PanQinase panel; assay type: biochemical; details: read-out: Residual Activity (%)
T13 construct: purchased ProQinase
Experimental: as §1, §2, §3, §4

[14] = target: T14, DAPK2 (Homo sapiens, UniProt Q9UIK4); test: 33PanQinase panel; assay type: biochemical; details: DAPK2, 1 µM; read-out: Residual Activity (%)
T14 construct: purchased ProQinase
T14 sequence (Q9UIK4 whole entry): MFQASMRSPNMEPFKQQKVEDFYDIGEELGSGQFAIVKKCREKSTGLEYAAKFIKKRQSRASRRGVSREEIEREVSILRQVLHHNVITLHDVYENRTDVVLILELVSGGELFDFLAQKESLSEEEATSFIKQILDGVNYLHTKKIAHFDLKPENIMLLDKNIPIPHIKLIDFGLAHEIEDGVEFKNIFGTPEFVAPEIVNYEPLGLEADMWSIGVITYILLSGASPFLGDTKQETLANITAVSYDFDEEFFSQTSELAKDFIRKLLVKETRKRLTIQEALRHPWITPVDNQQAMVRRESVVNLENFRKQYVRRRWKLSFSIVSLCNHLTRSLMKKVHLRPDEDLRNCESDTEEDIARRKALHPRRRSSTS
Experimental: as §1, §2, §3, §4

[15] = target: T15, S6K (Homo sapiens, UniProt P23443); test: 33PanQinase panel; assay type: biochemical; details: read-out: Residual Activity (%)
T15 construct: purchased ProQinase
Experimental: as §1, §2, §3, §4

[16] = target: T16, human GST-CK1ε (Homo sapiens, UniProt P49674); test: in-vitro kinase assay CK1ε; assay type: biochemical; details: 10 µM ATP, mean ± SD, n = 3
T16 construct: purchased Invitrogen PV3500
T16 sequence (P49674 whole entry): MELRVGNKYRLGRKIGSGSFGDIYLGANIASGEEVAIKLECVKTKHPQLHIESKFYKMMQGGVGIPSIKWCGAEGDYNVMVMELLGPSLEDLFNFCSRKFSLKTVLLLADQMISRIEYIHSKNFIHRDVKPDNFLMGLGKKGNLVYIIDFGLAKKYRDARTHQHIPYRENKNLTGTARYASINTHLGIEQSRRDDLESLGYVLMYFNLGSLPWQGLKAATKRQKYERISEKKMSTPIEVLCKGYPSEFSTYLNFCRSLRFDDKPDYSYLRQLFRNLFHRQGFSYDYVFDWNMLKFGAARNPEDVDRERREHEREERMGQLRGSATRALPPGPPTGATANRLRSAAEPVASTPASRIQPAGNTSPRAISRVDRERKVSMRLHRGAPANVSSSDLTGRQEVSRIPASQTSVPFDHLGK
Experimental: In vitro kinase assays have been performed to both screen, as well as to calculate IC50 values of the compounds for CK1δ and ε. Each reaction was carried out using 2 μCi ^32P-γ-ATP in kinase buffer containing 25 mM Tris-HCl (pH = 7.5), 10 mM MgCl2, 100 µM EDTA, and 10 µM ATP. […] Recombinant human CK1δ transcription variant 1 (expressed and purified as GST fusion protein as described earlier) and human GST-CK1ε (PV3500; Invitrogen) were used as sources of enzyme, while α-casein (C6780; Sigma-Aldrich) was used as substrate. Kinase reactions were incubated for 30 min at 30 °C and then stopped with loading dye (50 mM Tris-HCl (pH = 6.8), 5% (v/v) β-mercaptoethanol (MSH), 10% (v/v) glycerol, 2% (w/v) sodium dodecyl sulfate (SDS), 0.1% (w/v) bromphenol blue). Subsequently, reactions were separated by sodium dodecyl sulfate polyacrylamide gel electrophoresis (SDS-PAGE) and phosphorylated protein bands were visualized on dried gels by autoradiography. The phosphorylated substrate protein bands were excised, and phosphorylation was quantified by Cherenkov counting. Dose-response analyses and calculation of IC50 values were carried out using GraphPad Prism 6 statistical software (San Diego, CA, USA).

[17] = test system: HT-29 cells; test: MTT cell viability assay HT-29; assay type: cell-based, human; details: Homo sapiens, HT-29, 48 h, mean ± SD
Experimental: The human colon adenocarcinoma cell line HT-29 was grown in McCoy’s 5A medium, whereas MCF7 cells were grown in DMEM medium. All media were supplemented with 10% fetal calf serum (FCS), 100 units/mL penicillin, 100 µg/mL streptomycin and 2 mM glutamine. All cells were grown at 37 °C in a humidified 5% carbon dioxide atmosphere.
In order to analyze the effects of selected inhibitors on the cell viability of HT-29 and MCF7 cells, MTT assays were performed. 1 × 10^4 cells/well were seeded in 96-well cell culture plates. After 24 h cells were treated with increasing concentrations of the indicated inhibitor compounds, with untreated and DMSO-treated cells as control. After an incubation period of 48 h, 10 µL of MTT solution (5 mg/mL in PBS) were added and cells were incubated for 4 h. MTT-containing medium was carefully removed and 100 µL acidic isopropanol (0.04 N HCl in isopropanol) per well were added. To dissolve formazan crystals, plates were shaken for 30 min on an orbital shaker in the dark. Finally, dissolved crystals were measured spectrophotometrically at 570 nm. All experiments were performed in triplicate with four technical replicates per assay. Results were normalized considering the mean optical density value of control wells as 100%. GraphPad Prism 6 software (San Diego, CA, USA) was used to calculate EC50 values.

COc1ccc(-c2cc(C(=O)Nc3cc(-c4c(-c5ccc(F)cc5)noc4C(C)C)ccn3)n(CC3NCC(O)C3O)c2)cc1 (stereo not drawn) [29d]
remaining activity at 1 µM [1]: 92% | remaining activity at 1 µM [2]: 97% | remaining activity at 1 µM [3]: 88% | remaining activity at 1 µM [4]: 112% | remaining activity at 1 µM [5]: 104% | remaining activity at 1 µM [6]: 118% | remaining activity at 1 µM [7]: 86% | remaining activity at 1 µM [8]: 108% | remaining activity at 1 µM [9]: 127% | remaining activity at 1 µM [10]: 97% | remaining activity at 1 µM [11]: 109% | remaining activity at 1 µM [12]: 104% | remaining activity at 1 µM [13]: 108% | remaining activity at 1 µM [14]: 96% | remaining activity at 1 µM [15]: 102% | IC50 [16]: 0.065 ± 0.012 µM | remaining activity at 10 µM ([16]; 10 µM compound, read-out: CK1ε Residual Activity [%] at 10 µM ± SD): 12 ± 2% | viability at 5 µM ([17]; 5 µM): 76 ± 13% | viability at 10 µM ([17]; 10 µM): 51 ± 8% | viability at 20 µM ([17]; 20 µM): 14 ± 2% | EC50 [17]: 8 ± 1.7 µM
